In patent US9034814B2, “CXCR4 antagonists for wound healing and re-epithelialization” (Hadasit Medical Research Services and Development Ltd., priority 2005, dated 2015):
Entries after “also recorded” stand apart in the source; their conditions may differ. Bridge positions count the residues as written; N and C are the ends. Square brackets hold non-standard residues; d marks the D form. * marks the point of attachment. 2Nal = N[C@@H](Cc1ccc2ccccc2c1)C(=O)O; Benzoyl(4-F) = O=C(c1ccc(F)cc1)*; Cit = NC(=O)NCCC[C@H](N)C(=O)O

Experiments:
CXCR4 = biological target: T1, CXCR4 (Rattus norvegicus, UniProt O08565); assay: Transwell migration of rat lymphocytes in response to CXCL12; format: cell-based; settings: CXCL12 100 ng/ml; antibody against CXCR4 10 μg/ml; FIG. 8
T1 construct: endogenous in cells; host or cells: rat peripheral blood mononuclear cells / lymphocytes (Ficoll-Histopaque isolated)
T1 sequence (O08565 whole entry): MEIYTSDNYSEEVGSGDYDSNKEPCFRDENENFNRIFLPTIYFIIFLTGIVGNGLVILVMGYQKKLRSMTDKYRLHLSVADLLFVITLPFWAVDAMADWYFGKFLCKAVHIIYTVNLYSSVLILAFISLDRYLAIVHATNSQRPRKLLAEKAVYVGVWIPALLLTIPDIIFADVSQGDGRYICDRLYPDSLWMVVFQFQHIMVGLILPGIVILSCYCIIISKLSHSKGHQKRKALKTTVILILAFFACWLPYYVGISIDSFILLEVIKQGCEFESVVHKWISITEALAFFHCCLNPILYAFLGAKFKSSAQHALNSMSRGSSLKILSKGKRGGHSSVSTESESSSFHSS
Procedure: Rat peripheral blood cells were loaded on Ficoll-Histopaque gradient (Histopaque-1077-1, Sigma) and the peripheral blood mononuclear cells (PBMC) were isolated. Rat PBMC migration was assessed in 24-well chemotaxis chambers (6.5-mm diameter, 5-μm pore polycarbonate transwell culture insert; Costar, Cambridge, Mass.). 600 μl RPMI 1640 with 1% BSA (migration buffer) with or without 100 ng/ml of CXCL12α (Peprotech) were added to the lower wells, and 2×10^5 cells suspended in 100 μl of RPMI 1640 with 1% BSA were added to the upper wells. After three hours of incubation, the membrane was removed and migrating cells were counted for 1 min using fluorescence activated cell sorting (FACS).
In order to evaluate the effect of the CXCR4 antagonist 4F-benzoyl-TN14003 and neutralizing antibodies to the receptor on the recovery of rat skin, the inventors first tested their ability to inhibit the migration of rat lymphocytes in response to CXCL12. Migration assay was carried out on total rat lymphocytes separated by Ficoll gradient and their migrating ability to medium containing CXCL12 was examined. Lymphocytes were incubated with the CXCR4 antagonist 4F-benzoyl-TN14003, or an antibody against CXCR4 (10 μg/ml).

[1] = system: partial thickness burns in a rat model; assay: Rat partial thickness burn wound healing, histological evaluation; format: in vivo
From the text: In order to examine the different phases in burn wound healing and the involvement of the chemokine CXCL12 and the receptor CXCR4, the following experiments were done. Wistar female rats were anesthetized and their back was shaved. 1 cm^2 burns were inflicted with a metal rod that has been immersed in a hot boiling water bath and laid on the posterior part of the hip and back for 2-3 seconds. All experiments were approved by the Animal care committee of the Medical Center, Tel-Aviv and the Hebrew University. Heterozygous mice bearing a GFP reporter knocked-in allele to the CX3CR1 locus (Qu et al. 2004) were maintained at the Weizmann Institute of Science Animal Facility, and burns were inflicted as described above. Each group of 3 animals was injected subcutaneously to the burned area with PBS. Animals were sacrificed at the indicated times after burn infliction: 0, 6 hr, 1 day, 3 days, 5 days and 7 days. Histopathological diagnosis was confirmed for each specimen. Histological sections were prepared from formalin-fixed, paraffin-embedded tissues stained with Hematoxylin and Eosin. Evaluation to the level of epithelialization and white blood cells (WBC) in the epidermis and dermis was made to each section by a scale from 1-5. The sections were scored by two independent pathologists.
In other experiments, treated rats were injected subcutaneously to the burned area with one of the following: PBS, mAb against Rat CXCR4 (12G5 clone, R&D Systems Inc., Minneapolis, Minn.), or the small peptide CXCR4 inhibitor 4F-benzoyl-TN14003 (4F-benzoyl-Aig-Arg-Nal-Cys-Tyr-Cit-Lys-DLys-Pro-Tyr-Arg-Cit-Cys-Arg-NH2, SEQ ID NO:52; Tamamura et al., 2003). All animals were sacrificed 120 hr after injury. Histopathological diagnosis was confirmed for each specimen. Histological sections were prepared from formalin-fixed, paraffin-embedded tissues stained with Hematoxylin and Eosin. Evaluation to the level of epithelialization and white blood cells (WBC) in the dermis was made to each section by a scale from 1-5. The grading scale was as follows: 0=No inflammation or epithelialization; 1=Low inflammation or epithelialization; 2=Low to moderate inflammation or epithelialization; 3 Moderate inflammation or epithelialization; 4=High inflammation or epithelialization; 5=Very high inflammation or epithelialization. Each section was evaluated by two independent pathologists.
Next, the inhibitory effect of CXCR4 antagonists on burn wound healing was examined (FIG. 9). Inhibitors were injected subcutaneously to the burned area at 0, 1 day, and 3 days (20 μg per injection), and animals were sacrificed 5 days post burn. […] A small but not significant decrease in the PMN population in the dermis was observed (FIG. 10). […]

[2] = rat burn, 20 μg per injection s.c. at 0, 1 day, 3 days, 5 days post burn, FIG. 11

effect on the migration of rat lymphocytes in response to CXCL12 (CXCR4): strong inhibitory effect
Substance: 4F-benzoyl-Arg-Arg-Nal-Cys-Tyr-Cit-Lys-DLys-Pro-Tyr-Arg-Cit-Cys-Arg-NH2 ({Benzoyl(4-F)}-RR[2Nal]CY[Cit]K[dK]PYR[Cit]CR-NH2; disulfide 4-13 (inferred)) [4F-benzoyl-TN14003]
accumulation of PMN cell population in the epidermis [1, 2]: not affected | eosinophil accumulation in the dermis [1, 2]: reduced eosinophilia; also recorded: strong and significant inhibition | epithelialization ([1]; rat burn, 20 μg per injection subcutaneously to the burned area at 0, 1 day, 3 days, sacrificed 5 days post burn, FIG. 9): improved epithelialization; also recorded: increased epithelialization | potency in improving wound healing in vivo, peptide antagonist versus neutralizing mAb ([1]; rat partial thickness burns): more potent than the neutralizing mAb
